Columns and labels:
[1] = tested on: isolated guinea pig right ventricular papillary muscle; test: Ex-vivo organ study: functional refractory period in isolated guinea pig right ventricular papillary muscle; settings: conc 10^−5 mol/l
Text: The compounds were checked for their effect on the force of contraction, stimulation threshold and for the Functional Refractory Period (FRP) in isolated rat left atria (Rat LA). Rat left atria functionally express the Kv4.3 ion channel, producing the Ito current of the action potential. […] The guinea pig action potential is dominated by hERG like ion channels for the refractory currents. Consequently, activity of hERG channels in vivo should be seen in GP pap muscle preparations.
Method: Rat LA (Same Method Applies to GP pap. Muscle)
Left atria were mounted vertically in a two-chambered organ bath containing 100 ml of buffer solution (in mM: NaH2PO4 0.6, MgSO4 0.6, KCl 4.7, NaHCO3 25, glucose 4.5, NaCl-120, CaCl2 2.4). The solution was saturated with and circulated by a gas mixture containing 95% O2 and 5% CO2. The temperature was kept constant at 30° C. […] The isometric force of the preparations was measured by force transducers, connected to amplifiers, documented by a pen recorder and fed into a computer for evaluation. Force of contraction (FC), threshold stimulus (TS) and the functional refractory period (FRP) were measured at baseline (pre), 20 min after addition of compound, and after washout at the end of the experiment. Threshold stimulus, representing excitability of the tissue, was assessed by varying the voltage applied for electrical stimulation. […]

IK1 (Kir2.1) = target: T1, IK1 (Kir2.1) (Homo sapiens, UniProt P63252); test: Whole-cell patch clamp in human atrial myocytes: IK1; format: cell-based; settings: n = 3 cells
T1 construct: endogenous in cells; host or cells: freshly isolated human atrial myocytes
T1 sequence (P63252 1-427): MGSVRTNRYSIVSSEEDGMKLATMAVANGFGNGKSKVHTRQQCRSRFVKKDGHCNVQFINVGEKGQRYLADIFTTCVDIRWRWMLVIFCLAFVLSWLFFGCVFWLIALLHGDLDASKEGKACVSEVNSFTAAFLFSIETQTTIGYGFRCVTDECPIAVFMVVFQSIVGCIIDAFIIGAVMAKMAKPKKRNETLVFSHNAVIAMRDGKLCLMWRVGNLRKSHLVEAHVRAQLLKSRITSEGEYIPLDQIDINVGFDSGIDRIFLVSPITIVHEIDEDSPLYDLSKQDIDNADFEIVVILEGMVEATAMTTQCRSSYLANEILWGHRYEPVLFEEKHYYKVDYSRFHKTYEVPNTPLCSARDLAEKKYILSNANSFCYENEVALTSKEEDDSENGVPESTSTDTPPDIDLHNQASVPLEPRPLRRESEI
Method: The blocking profile of the compounds of the invention is determined on the following channels of the human atrial myocytes: INa, Ito, Isus and IK1 channel currents.
Human atrial myocytes: Myocytes were prepared from specimens with grossly normal anatomical aspect, excised from hearts of patients with normal P-wave electrocardiogram, undergoing bypass surgery. Human atrial sample were obtained following approval by the ethical committee. […]
Experiments were performed at room temperature (20-25° C.) for INa and at 32-34° C. for Ito, Isus, IK1. Currents were measured using the whole-cell variant of the patch clamp method. […]
After rupture of the cell membrane to enter the whole-cell mode, current amplitude and kinetics were allowed to stabilize for 3-7 min before initiating the experimental procedure. K^+ currents recorded from human atrial myocytes were elicited by a 500 ms pulse to +60 mV from a holding potential of −50 mV for Ito and Isus. Ito was measured as a peak current amplitude whereas Isus as a current present at the end of the 500 ms voltage pulse. In addition, the area under the curve, before and after compound, were measured over the course of the pulse period. […]

COc1ccccc1Nc1nc(C)c(C(=O)N[C@H]2CCC[C@@H]2OCc2ccccc2)s1 [Compound 68, 2-(2-methoxy-phenylamino)-4-methyl-thiazole-5-carboxylic acid (1S,2S)-2-(benzyloxycyclopent-1-yl) amide]
dFRP Guinea Pig [1]: 0 ms
Block at 10 μM in %: IK1 (Kir2.1) (IK1 (Kir2.1)): −2.7 ± 2.0%

Source: US20080125432A1 (Devgen NV, priority 2004, published 2008)
